The text below walks through data of patent publication US20240368153A1, “Aminopyridine-based MTA-Cooperative PRMT5 Inhibitors” (Mirati Therapeutics, Inc., priority 2021, published 2024).

The structures appear in SMILES notation. A value given as a limit tells only on which side of the number the result lay.

recombinant human dual expressed Avi PRMT5/His-MEP50 protein, sequence (O14744 2-637): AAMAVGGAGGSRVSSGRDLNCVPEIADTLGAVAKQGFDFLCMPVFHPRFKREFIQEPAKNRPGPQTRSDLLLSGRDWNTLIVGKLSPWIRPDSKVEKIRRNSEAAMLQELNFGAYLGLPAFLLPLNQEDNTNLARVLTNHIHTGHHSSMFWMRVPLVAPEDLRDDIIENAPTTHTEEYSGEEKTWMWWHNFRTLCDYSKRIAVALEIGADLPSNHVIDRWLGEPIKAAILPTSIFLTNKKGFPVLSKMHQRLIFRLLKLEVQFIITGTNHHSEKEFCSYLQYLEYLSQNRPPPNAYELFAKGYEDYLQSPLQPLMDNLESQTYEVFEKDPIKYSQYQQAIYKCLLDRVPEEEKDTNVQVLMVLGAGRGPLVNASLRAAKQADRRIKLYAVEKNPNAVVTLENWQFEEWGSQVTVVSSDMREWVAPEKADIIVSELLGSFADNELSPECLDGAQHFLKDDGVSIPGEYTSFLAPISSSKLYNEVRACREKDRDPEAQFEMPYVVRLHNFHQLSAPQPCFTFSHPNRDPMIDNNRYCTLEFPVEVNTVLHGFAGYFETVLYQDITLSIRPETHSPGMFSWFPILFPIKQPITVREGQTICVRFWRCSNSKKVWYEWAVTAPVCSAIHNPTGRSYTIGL
recombinant human dual expressed Avi PRMT5/His-MEP50 protein, sequence (Q9BQA1 2-342 partner): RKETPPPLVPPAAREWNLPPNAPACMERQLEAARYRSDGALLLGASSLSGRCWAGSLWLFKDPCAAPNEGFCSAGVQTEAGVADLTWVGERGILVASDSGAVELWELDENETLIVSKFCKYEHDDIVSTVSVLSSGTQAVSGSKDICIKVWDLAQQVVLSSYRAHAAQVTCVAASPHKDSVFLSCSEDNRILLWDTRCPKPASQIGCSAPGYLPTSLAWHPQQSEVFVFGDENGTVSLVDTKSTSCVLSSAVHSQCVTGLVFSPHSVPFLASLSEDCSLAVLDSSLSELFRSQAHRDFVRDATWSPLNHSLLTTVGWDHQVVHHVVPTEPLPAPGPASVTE

The experiment has as its target recombinant human dual expressed Avi PRMT5/His-MEP50 protein (Homo sapiens (Human), UniProt O14744). Description: HTRF binding assay in presence of MTA. The settings on record: 30 μM MTA. As to the method:
The PRMT5 binding activity of compounds of the present invention was determined using an HTRF binding assay or SPR assay.
A recombinant human dual expressed Avi PRMT5/His-MEP50) protein (corresponding to amino acids for PRMT5 2-637, and 2-342 for MEP50 expressed in baculovirus) was incubated with target fragments in final buffer (25 mM ADA pH 7.2, 30 μM MTA, 1 mM TCEP, 50 mM NaCl, 0.002% Tween, 5 nM proprietary Tracer binding compound prepared in-house), overnight at 2-8° C. After overnight incubation the binding is monitored after the addition of 0.5 nM Anti-His-Tb (Cisbio) after 1 hr incubation at RT (˜20-24 hrs total binding time). The HTRF signal was measured using a Clariostar reader (BMG) excitation filter (Ex Tr), dichroic filter (LP TP) and emission filters (F 665-10 and F 620-10) manufacturer's instructions. The HTRF ratio was calculated using the formula: [emission 665/emission 620]*10000.
(Time-resolved FRET reads energy transfer from a long-lived donor to a nearby acceptor.)
`Cc1ccccc1Cc1cnc2c(C)cc(N)nc2c1` [Example 2-5, 4-methyl-7-(2-methylbenzyl)-1,5-naphtbyridin-2-amine]: the 50% inhibitory concentration (IC50) worked out at 8.83 µM.
For the compound `Cc1cc(N)nc2ccc(NC3CCC3)nc12` [Example 5-3, N^6-cyclobutyl-4-methyl-1,5-naphthyridine-2,6-diamine], the IC50 was 87.9 µM.
For the compound `Cc1ccccc1Oc1cnc2c(C)cc(N)nc2c1` [Example 3-5, 4-methyl-7-(2-methylphenoxy)-1,5-naphtbyridin-2-amine], the IC50 came to 39.6 µM.
As for `Cc1cc(N)nc2cc(Oc3ccccc3F)cnc12` [Example 3-2, 7-(2-fluorophenoxy)-4-methyl-1,5-naphthyridin-2-amine], the 50% inhibitory concentration (IC50) was 5.11 µM.
On to `Cc1cc(N)nc2cc(Cc3ccccn3)cnc12` [Example 2-6, 4-methyl-7-(2-pyridylmethyl)-1,5-naphthyridin-2-amine], for which the concentration for half-maximal inhibition (IC50) is 2.85 µM.
With `Cc1cc(N)nc2cc(-c3cccnn3)cnc12` [Example 1-4, 4-methyl-7-(pyridazin-3-yl)-1,5-naphthyridin-2-amine], the concentration for half-maximal inhibition (IC50) turned out to be 7.46 µM.
In the case of `Cc1cc(N)nc2cc(Cc3ccncc3)cnc12` [Example 2-8, 4-methyl-7-(4-pyridylmethyl)-1,5-naphthyridin-2-amine], the 50% inhibitory concentration (IC50) is 35.5 µM.
In the case of `Cc1cc(N)nc2cc(Cc3cscn3)cnc12` [Example 2-10, 4-methyl-7-(thiazol-4-ylmethyl)-1,5-naphthyridin-2-amine], the IC50 turned out to be 2.14 µM.
Take `Cc1cc(N)nc2ccc(-c3ccccn3)nc12` [Example 4-2, 4-methyl-6-(2-pyridyl)-1,5-naphthyridin-2-amine]: the IC50 turned out to be 13.9 µM.
In the case of `Cc1cc(N)nc2cc(Oc3ccccc3C#N)cnc12` [Example 3-4, 2-((6-amino-8-methyl-1,5-naphthyridin-3-yl)oxy)benzonitrile], the concentration for half-maximal inhibition (IC50) worked out at 33.9 µM.
Take `Cc1cc(N)nc2cc(Oc3ccncc3)cnc12` [Example 3-8, 4-methyl-7-(pyridin-4-yloxy)-1,5-naphtbyridin-2-amine]: the IC50 was determined as 84 µM.
Consider `Cc1cc(N)nc2cc(-c3cccnc3)cnc12` [Example 1-3, 4-methyl-7-(pyridin-3-yl)-1,5-paphthyridin-2-amine], for which the IC50 stood at 2.08 µM.
As to `Nc1ccc2cc(Cl)ncc2n1` [Example 6-1, 6-chloro-1,7-naphthyridin-2-amine], the 50% inhibitory concentration (IC50) is no less than 100 µM.
As to `Cc1cc(N)nc2ccc(-c3ccsn3)nc12` [Example 4-10, 6-isothiazol-3-yl-4-methyl-1,5-naphthyridin-2-amine], the IC50 came to 13.5 µM.
Turning to `Cc1cc(N)nc2cc(Cc3ccccc3)cnc12` [Example 2-1, 7-benzyl-4-methyl-1,5-naphthyridin-2-amine], the half-maximal inhibitory concentration (IC50) amounted to 6.64 µM.
For `Nc1ccc2c(n1)CN(c1cccnc1)CC2` [Example 11-1, 7-(3-pyridyl)-6,8-dihydro-5H-1,7-naphthyridin-2-amine], the half-inhibitory concentration (IC50) was 3.68 µM.
As for `Cn1cc(N2CCc3cc(F)c(N)nc3C2)cn1` [Example 11-3, 3-fluoro-7-(1-methyl-1H-pyrazol-4-yl)-5,6,7,8-tetrahydro-1,7-naphthyridin-2-amine], the figure is no less than 100 µM.
Consider `CC(=O)NCc1cc2nc(N)c(C)cc2n1C(C)=O` [Example 15-7, N-((1-acetyl-5-amino-6-methyl-1H-pyrrolo[3,2-b]pyridin-2-yl)methyl)acetamide], for which the IC50 was found to be 0.581 µM.
As for `Cc1cc(N)nc2cc(Oc3ccccc3Cl)cnc12` [Example 3-3, 7-(2-chlorophenoxy)-4-methyl-1,5-naphthyridin-2-amine], the IC50 is 4.8 µM.
As for `CNc1ccc2nc(N)cc(C)c2n1` [Example 5-1, N^2,8-dimethyl-1,5-naphthyridine-2,6-diamine], the figure is no less than 100 µM; as for `Cc1cc(N)nc2ccc(-c3cnsc3)nc12` [Example 4-6, 6-isothiazol-4-yl-4-methyl-1,5-naphthyridin-2-amine], 21.8 µM; as for `Cc1cc(N)nc2cc(-c3cncs3)cnc12` [Example 1-6, 4-methyl-7-(thiazol-5-yl)-1,5-naphthyridin-2-amine], 51 µM.

Broadly, the IC50 is the point on the concentration scale where inhibition reaches its midpoint.
